Data: patent US20050043381A1, “Aminopyrazole compounds” (AGOURON PHARMACEUTICALS, INC., priority 2003, published 2005)

How the values were obtained:
[1] = target: T1, full-length human CHK1 (FL-CHK1) (Homo sapiens, UniProt O14757); test: FL-CHK1 assay (coupled spectrophotometric, Syntide-2); assay type: biochemical; conditions: FL-CHK1, 0.15 mM ATP
T1 construct: C-terminally His-tagged full-length human CHK1 (FL-CHK1); 6xHis (C); made in house
T1 sequence (O14757 1-476): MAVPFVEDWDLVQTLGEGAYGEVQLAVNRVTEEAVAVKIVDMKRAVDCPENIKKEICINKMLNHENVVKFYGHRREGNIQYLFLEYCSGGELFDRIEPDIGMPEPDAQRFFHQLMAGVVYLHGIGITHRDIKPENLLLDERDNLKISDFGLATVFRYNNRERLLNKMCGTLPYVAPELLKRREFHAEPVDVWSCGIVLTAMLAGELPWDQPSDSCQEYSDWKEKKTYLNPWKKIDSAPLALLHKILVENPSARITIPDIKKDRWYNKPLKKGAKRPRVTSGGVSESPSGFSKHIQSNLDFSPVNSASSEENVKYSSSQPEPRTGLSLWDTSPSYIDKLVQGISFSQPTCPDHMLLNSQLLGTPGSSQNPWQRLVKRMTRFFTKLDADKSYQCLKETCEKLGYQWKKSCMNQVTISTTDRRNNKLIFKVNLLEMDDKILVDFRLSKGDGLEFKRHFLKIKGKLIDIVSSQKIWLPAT
Excerpt: C-terminally His-tagged full-length human CHK1 (FL-CHK1) was expressed using the baculovirus/insect cell system. It contains 6 histidine residues (6 x His-tag) at the C-terminus of the 476 amino acid human CHK1. The protein was purified by conventional chromatographic techniques.
The production of ADP from ATP that accompanies phosphoryl transfer to the synthetic substrate peptide Syntide-2 (PLARTLSVAGLPGKK) was coupled to oxidation of NADH using phosphoenolpyruvate (PEP) through the actions of pyruvate kinase (PK) and lactic dehydrogenase (LDH). The oxidation of NADH was monitored by following the decrease of absorbance at 340 nm (ε340=6.22 cm^−1 mM^−1) using a HP8452 spectrophotometer. Typical reaction solutions contained: […] PEP; 0.15 mM NADH; 28 units of LDH/mL; 16 units of PK/mL; 3 mM DTT; 0.125 mM Syntide-2; 0.15 mM ATP; 25 mM MgCl2 in 50 mM TRIS, pH 7.5; and 400 mM NaCl. Assays were initiated with 10 nM of FL-CHK1. Ki values were determined by measuring initial enzyme activity in the presence of varying concentrations of test compounds. The data were analyzed using Enzyme Kinetic and Kaleidagraph software. […]

CA-46 (lymphoma) cells = test: Whole cell checkpoint abrogation assay (CHK1 Mitotic Index ELISA); assay type: cell-based; conditions: concentration causing 50% abrogation of the checkpoint; camptothecin + Nocodazole
Procedure: To examine the in vitro effects of CHK1 inhibitory compounds, an ELISA assay can be designed to monitor the abrogation of DNA damage-induced checkpoint control. The assay can be based on the trapping and detection of mitotic cells following DNA damage-induced arrest.
CA-46 (lymphoma) cells can be treated with a DNA damaging agent, such as camptothecin (Sigma), at 50 nM for 8 hours to induce DNA damage. The control compound or CHK1 inhibitor can be then added at increasing concentrations with Nocodazole (Sigma) at 0.1 μg/ml and plates can be incubated for 16 hours. Control cells, where only CHK1 inhibitors can be added, can be prepared as well to assure that the inhibitors alone have no effect on the cell cycle. The cells can be then harvested, washed with PBS, and crude acid extraction can be performed. Pellets can be resuspended in 80 μl of Acid Extraction Buffer (10 mM Hepes pH 7.9, 1.5 mM MgCl2, 10 mM KCl, 0.5 mM DTT, 1.5 mM PMSF, 0.4N sulfuric acid), vortexed briefly, and incubated for 30 minutes on ice. Samples can be then centrifuged and 75 μl of the supernatant can be transferred to a 96 well flat-bottom plate (VWR 3596). Next 15 μl Neutralizing Cocktail (# of samples×(10 μl 10N NaOH+5 μl 1M Tris Base) can be added to each well, and after mixing, 5 μl of this can be transferred to another 96 well plate with 100 μl 50 mM Tris base (pH 9.6) in each well. Samples can be dried overnight. The wells can be then washed with 200 μl ELISA wash buffer (PBS with 20 mM Tris pH 7.5, 0.05% Tween 20) 5 times and blocked with 200 μl blocking buffer (PBS with 20 mM Tris pH 7.5, 0.05% Tween 20, 3.5% Dry milk, 1.5% BSA. pH to 7.5 after preparation) for 1 hour at room temperature. Following wash and block, anti-phospho Histone H3 antibodies (Upstate USA, Inc., rabbit polyclonal) can be added at 0.5 μg/ml in block (100 μl per well) and incubated for 2 hours at room temperature. Wells can be washed again to remove unbound primary antibody and 100 μl alkaline phosphatase conjugated secondary antibodies at 0.3 mg/ml (Pierce, goat anti-rabbit IgG ([…]+L)) in block can be added for 1 hour at room temp. Wells can be washed 5 times to remove unbound secondary antibody, and washed again 3 times with PBS alone to remove detergents. Then 100 μl alkaline phosphatase substrate (Pierce 1-Step pNPP) can be added to wells. Plates can be protected from light and incubated at room temp for 1 hour. The OD can be read on Molecular Devices Vmax Kinetic Microplate Reader at 405 nm. The ratio of the OD (optical density) of a compound treated sample to the Nocodazole only treated sample (about 100% mitotic or abrogation) can be expressed in a percentage, and quantifies the percent abrogation of the checkpoint. The concentration at which a compound causes 50% abrogation of the checkpoint can be called the EC50. The raw OD values can be graphed in Excel, and an EC50 value can be generated using Kaleidograph software. Strong signal results from Nocodazole only treated cells, and equals 100% mitosis in this assay. Camptothecin+Nocodazole treated control samples have low signal, signifying no mitosis and therefore, no checkpoint abrogation. When potent CHK1 inhibitors are added to Camptothecin treated cells with Nocodazole, a high signal can be generated (generally in a dose dependent manner), due to the checkpoint abrogation activity caused by the combination treatment.

- Ki [1]: 1 to 10 nM
- EC50 (CA-46 (lymphoma) cells): 165 nM
SMILES: Oc1ccc(-c2ccc(-c3cc(Nc4ccc(CNCC5CC5)nc4)[nH]n3)cc2)c(O)c1 [Example 23, 4′-{5-[(6-{[(cyclopropylmethyl)amino]methyl}pyridin-3-yl)amino]-1H-pyrazol-3-yl}-1,1′-biphenyl-2,4-diol]
